Patent US6482921B1, “Uridyl peptide antibiotic (UPA) derivatives, their synthesis and use” (Essential Therapeutics, Inc., priority 1999, dated 2002)
In brackets after ≈: the same amount, converted by molar mass.

What was measured:
Format in all cases: cell-based
[1] = system: Pseudomonas aeruginosa PAM 1323; assay: MIC broth microdilution, P. aeruginosa PAM 1323 (medium level UPA resistance)
[2] = system: Pseudomonas aeruginosa PAM 1135; assay: MIC broth microdilution, P. aeruginosa PAM 1135 (high level UPA resistance); settings: P. aeruginosa PAM 1135 UPA1^r
[3] = system: Escherichia Coli MC 4100 AcrAB UPA3r; assay: MIC broth microdilution, E. coli MC 4100 AcrAB UPA3r (ΔAcrAB, UPA resistant); settings: E. coli AcrAB UPA3^r
[4] = system: Escherichia Coli MC 4100; assay: MIC broth microdilution, E. coli MC 4100 (wild type); settings: E. coli MC 4100
[5] = system: Escherichia Coli MC 4100 AcrAB; assay: MIC broth microdilution, E. coli MC 4100 AcrAB (ΔAcrAB); settings: E. coli AcrAB
[6] = system: Pseudomonas aeruginosa PAM 1020; assay: MIC broth microdilution, P. aeruginosa PAM 1020 (wild type); settings: P. aeruginosa PAM 1020
[7] = system: Pseudomonas aeruginosa PAM 1154; assay: MIC broth microdilution, P. aeruginosa PAM 1154 (OprM::Hg); settings: P. aeruginosa PAM 1154 OprM::Hg
[8] = system: Staphylococcus aureus 8325-4; assay: MIC broth microdilution, S. aureus 8325-4 (wild type); settings: S. aureus 8325-4
[9] = system: Pasteurella multocida pm002; assay: MIC broth microdilution, P. multocida pm002 (wild type)
[10] = system: Staphylococcus aureus ATCC 29213; assay: MIC broth microdilution, S. aureus ATCC 29213 (wild type); settings: S. aureus ATCC 29213

| SMILES | MIC (μg/ml) Broth microdilution [1] [µg/mL] | MIC (μg/ml) Broth microdilution [2] [µg/mL] | MIC (μg/ml) Broth microdilution [3] [µg/mL] | MIC (μg/ml) Broth microdilution [4] [µg/mL] | MIC (μg/ml) Broth microdilution [5] [µg/mL] | MIC (μg/ml) Broth microdilution [6] [µg/mL] | MIC (μg/ml) Broth microdilution [7] [µg/mL] | MIC (μg/ml) Broth microdilution [8] [µg/mL] | MIC (μg/ml) Broth microdilution [9] [µg/mL] | MIC (μg/ml) Broth microdilution [10] [µg/mL] |
| --- | --- | --- | --- | --- | --- | --- | --- | --- | --- | --- |
| CNC(C)C(NC(=O)C(Cc1ccc(F)cc1)NC(=O)NC(Cc1ccc(O)cc1)C(=O)O)C(=O)NCC1CC(O)C(n2ccc(=O)[nH]c2=O)O1 [Compound 127, 1-[5′-[(2S,3S)-N^2-[N-[[(1S)-1-carboxy-4-hydroxyphenethyl)carbamoyl]-L-4-fluorophenylalanyl]-N^3-methyl-2,3-diaminobutyramidol-3′,5′-dideoxy-α-L-arabinofuranosyl]uracil] | >512 | >512 | 32 (≈ 44.8 µM) | >512 | 4 (≈ 5.6 µM) | >512 | 512 (≈ 717 µM) | >512 | >512 | >512 |
| CC(C(NC(=O)C(Cc1ccc(F)cc1)NC(=O)NC(Cc1ccc(O)cc1)C(=O)O)C(=O)NCC1CC(O)C(n2ccc(=O)[nH]c2=O)O1)N(C)C(=O)C(N)Cc1ccc(F)cc1 [Compound 105, 1-[5′[(2S,3S)-N^2-[N-[[(1S)-1-Carboxy-4-hydroxyphenethyl]carbamoyl]-L-4-fluorophenylalanyl]-N^3-L-4-fluorophenylalanyl-N^3-methyl-2,3-diaminobutyramido]-3′,5′-dideoxy-α-L-arabinofuranosyl]uracil] | 256 (≈ 291 µM) | 256 (≈ 291 µM) | 512 (≈ 583 µM) | 512 (≈ 583 µM) | 16 (≈ 18.2 µM) | 256 (≈ 291 µM) | 64 (≈ 72.8 µM) | >512 | 512 (≈ 583 µM) | >512 |
| CC(C(NC(=O)C(Cc1ccccc1)NC(=O)NC(Cc1c[nH]c2ccccc12)C(=O)O)C(=O)NCC1CC(O)C(n2ccc(=O)[nH]c2=O)O1)N(C)C(=O)C(N)Cc1ccc(F)cc1 [Compound 114, 1-[5′-((2S,3S)-N^2-[N-[[(1S)-1-Carboxy-2-indol-3-ylethyl]carbamoyl]-L-phenylalanyl]-N^3-L-4-fluorophenylalanyl-N^3-methyl-2,3-diaminobutyramidol-3′,5′-dideoxy-α-L-arabinofuranosyl]uracil] | 256 (≈ 290 µM) | 256 (≈ 290 µM) | 512 (≈ 579 µM) | 512 (≈ 579 µM) | 8 (≈ 9.05 µM) | 16 (≈ 18.1 µM) | 16 (≈ 18.1 µM) | >512 | 256 (≈ 290 µM) | >512 |
